Assay results taken from BigSolDB 2.1.

CCOc1ccc(C2NC(=O)NC=C2C(=O)c2cc(OC)c(OC)c(OC)c2)cc1 (stereo not given)
Details	solubility (mole fraction)
in PEG-400, 298.15 K	0.00513
in PEG-400, 303.15 K	0.00678
in PEG-400, 308.15 K	0.0083
in PEG-400, 313.15 K	0.0104
in PEG-400, 318.15 K	0.0122

in water
Details	solubility (mole fraction)
298.15 K	8.04e-06
303.15 K	1.11e-05
308.15 K	1.52e-05
313.15 K	2.04e-05
318.15 K	2.57e-05
